Assay results reported in US20030013660A1, “Dioxolane analogs for improved inter-cellular delivery” (Shire BioChem Inc., priority 2000, published 2003).
“And” between values parts separate entries of the source, which are not always exact repeats. Equal entries are not always repeated. Where two headings read alike, the source gives them in different places. One block for each compound: values may come before it.

Columns and labels:
CEM cells = experiment: CellTiter 96 cell proliferation assay (chemosensitivity), 48 h; type: cell-based; details: for EC50: Homo sapiens, CCRF-CEM, read-out: EC50 (50% of the dose response curve); for effect of the es transport inhibitor NBMPR on resistance of CEM cells: presence of NBMPR
Description: (§1) The chemosensitivity of suspension cells lines (e.g., CEM or CEM-derivatives) is assessed using the CellTiter 96 ? proliferation assay. […] Adherent cell lines (e.g., DU145 or DU145^R) are seeded (^˜10^5 cells) in triplicate dishes, 24 h before drug exposure. Growth inhibition is determined by trypsinization and counting cells electronically.

SF-268 [1] = experiment: 3H-TdR (3H-thymidine) incorporation assay at 72 hr; type: cell-based, Human
H-460 [2] = experiment: 3H-TdR (3H-thymidine) incorporation assay at 72 hr; type: cell-based, Human
SF-268 [3] = experiment: MTT assay at 72 hr (24 hr drug exposure, wash, 48 hr); type: cell-based; details: Homo sapiens, SF-268, read-out: IC50 SF-268 24 h, Average, MTT at 72 hr, Average of the experiments
Description: (§2) Exposition of 24hr to drug, washed, and incubated for another 48hr (total of 72hr assay)

CEM/dCK- [4] = experiment: MTT or WST-1 assay at 72 hr (24 hr drug exposure, wash, 48 hr); type: cell-based
Description: as §2

CCRF-CEM [5] = experiment: as above; type: cell-based; details: Homo sapiens, CCRF-CEM, read-out: IC50 CCRF-CEM 24 h, Average, MMT or WST-1 at 72 hr, Average of the experiments
Description: as §2

CEM/dCK cells = experiment: CellTiter 96 cell proliferation assay (chemosensitivity), 48 h; type: cell-based; details: read-out: EC50 (50% of the dose response curve), 48 h exposure
Description: as §1

CEM/ARAC8C cells [6] = experiment: as above; type: cell-based
Description: as §1

CEM/dCK- [7] = experiment: 3H-TdR (3H-thymidine) incorporation assay at 72 hr; type: cell-based
Description: (§3) Table of IC50 Values (μM) for Controls
(§4) Exposition of 24 hr to drug, wash, incubated for another 48 hr (total of 72 hr assay)
(§5) (3H-Thymidine Incorporation Assay)

CCRF-CEM [8] = experiment: 3H-TdR (3H-thymidine) incorporation assay at 72 hr; type: cell-based
Description: as §3, §4, §5

H-460 [9] = experiment: MTT assay at 72 hr (24 hr drug exposure, wash, 48 hr); type: cell-based
Description: as §2

MCF-7 [10] = experiment: as above; type: cell-based; details: Homo sapiens, MCF7, read-out: IC50 MCF-7 24 h, Average, MTT at 72 hr, Average of the experiments
Description: as §2

MCF-7 [11] = experiment: 3H-TdR (3H-thymidine) incorporation assay at 72 hr; type: cell-based, Human
hENT1 = target: T1, hENT1 (Homo sapiens, UniProt Q99808); experiment: Cellular uptake assay of [3H]nucleoside in DU145 cells, with or without NBMPR or excess non-radioactive troxacitabine; type: in vitro ADME; set-up: The presence of functional es-mediated transport (hENT1) in DU145 cells; endogenous in cells; host or cells: DU145 cells; details: DU-145, 10 μM, 6-min time course, read-out: inhibition of total [3H]uridine uptake in the presence of NBMPR
T1 sequence (Q99808 1-456): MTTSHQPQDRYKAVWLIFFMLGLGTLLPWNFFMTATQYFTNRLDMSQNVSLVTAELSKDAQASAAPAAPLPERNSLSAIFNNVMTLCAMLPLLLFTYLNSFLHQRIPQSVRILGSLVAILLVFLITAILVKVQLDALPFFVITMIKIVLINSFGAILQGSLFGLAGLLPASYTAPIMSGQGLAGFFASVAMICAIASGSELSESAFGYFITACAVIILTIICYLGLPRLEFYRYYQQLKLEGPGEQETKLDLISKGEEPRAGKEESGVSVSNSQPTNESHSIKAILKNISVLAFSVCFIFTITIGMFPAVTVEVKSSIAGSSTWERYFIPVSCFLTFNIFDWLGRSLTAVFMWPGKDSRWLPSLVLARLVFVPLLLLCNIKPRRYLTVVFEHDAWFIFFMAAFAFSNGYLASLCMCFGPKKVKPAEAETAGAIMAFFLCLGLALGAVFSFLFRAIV
Description: Cancer Res., 56: 4187-4191.
This experiment is designed to show whether [^3H]L-troxacitabine (10 μM) is taken up by DU145 cells and if the rate of uptake is affected by the addition of high concentrations (1 mM) of non-radioactive troxacitabine.

CEM/ARAC8C cells [12] = experiment: Cellular uptake assay of [3H]nucleoside in nucleoside-transport deficient CEM/ARAC8C cells; type: in vitro ADME
Description: FIG. 1 Comparative uptake of 30 μM [^3H]-troxacitabine in CEM (Panel A) and CEM/ARAC8C (Panel B) cells. [^3H]-Uridine uptake in either the presence or absence of the hENT1 inhibitor, NBMPR or 5 mM non-radioactive uridine was included for comparison as a control substrate.

[13] = Homo sapiens, SF-268, 24 h, read-out: IC50 SF-268 24 h, Average, Average ± spread of the repeat determinations, 24 h exposure
[14] = Homo sapiens, NCI-H460, 24 h, read-out: IC50 H-460 24 h, Average, Average ± spread of the repeat determinations, 24 h exposure
[15] = read-out: IC50 H-460 24 h, 24 h drug exposure, wash, another 48 hr, 3H-TdR incorporation at 72 hr

Structure (SMILES): Nc1ccn([C@@H]2O[C@H](CO)[C@@H](O)[C@@H]2O)c(=O)n1 [Cytarabine, cytarabine, reference compound]
- EC50 (CEM cells; 48 h): 10 nM
- effect of the es transport inhibitor NBMPR on resistance of CEM cells (CEM cells): increased resistance
- IC50 (SF-268 [1]; [13]): 940 nM
- IC50 (SF-268 [1]; read-out: IC50 SF-268 24 h, 24 h drug exposure, wash, another 48 hr, 3H-TdR incorporation at 72 hr, listed as Cytosine Arabinoside): 300 nM
- IC50 (H-460 [2]; [14]): 52 nM
- IC50 (H-460 [2]; [15]): 13 nM and 99 nM
- IC50 (SF-268 [3]): 25000 ± 23000 nM

- IC50 (CCRF-CEM [5]): 20 ± 23 nM
- IC50 (SF-268 [1]; [13]): 8.6 nM
- IC50 (SF-268 [1]; read-out: IC50 SF-268 24 h, 24 h drug exposure, wash, another 48 hr, 3H-TdR incorporation at 72 hr): 4.5 nM and 10 nM and 9.4 nM
- IC50 (CEM/dCK- [7]; 24 h, read-out: IC50 CEM/dCK- 24 h, Average, Average ± spread of the repeat determinations, 24 h exposure): 66000 ± 24000 nM
- IC50 (CEM/dCK- [7]; read-out: IC50 CEM/dCK- 24 h, 24 h drug exposure, wash, another 48 hr, deoxycytidine kinase-deficient CCRF-CEM): 51000 nM and 41000 nM and 30000 nM
- IC50 (CCRF-CEM [8]; Homo sapiens, CCRF-CEM, 24 h, read-out: IC50 CCRF-CEM 24 h, Average, Average ± spread of the repeat determinations, 24 h exposure): 8.4 nM
- IC50 (CCRF-CEM [8]; read-out: IC50 CCRF-CEM 24 h, 24 h drug exposure, wash, another 48 hr, 3H-TdR incorporation at 72 hr): 10 nM and 9.2 nM
- IC50 (H-460 [2]; [14]): 11 nM
- IC50 (H-460 [2]; [15]): 9.1 nM and 10 nM and 8.3 nM
- IC50 (MCF-7 [10]): 78 nM
- IC50 (MCF-7 [11]; Homo sapiens, MCF7, 24 h, read-out: IC50 MCF-7 24 h, Average, Average ± spread of the repeat determinations, 24 h exposure): 6.8 nM
- IC50 (MCF-7 [11]; read-out: IC50 MCF-7 24 h, 24 h drug exposure, wash, another 48 hr, 3H-TdR incorporation at 72 hr): 8.7 nM and 10 nM
Structure (SMILES): Nc1ccn([C@@H]2O[C@H](CO)[C@@H](O)C2(F)F)c(=O)n1 [Gemcitabine, gemcitabine, reference compound]
- Resistance Factor*, Average (CEM/dCK- [4]; CEM/dCK- versus CCRF-CEM, Average of the experiments): 3987 ± 3871
- IC50 (CEM/dCK- [4]; read-out: IC50 CEM/dCK- 24 h, Average, MMT or WST-1 at 72 hr, Average of the experiments): 57000 ± 39000 nM
- EC50 (CEM/dCK cells): > 50000 nM
- EC50 (CEM cells; CEM cells, 48 h exposure): 20 nM
- effect of the es transport inhibitor NBMPR on resistance of CEM cells (CEM cells): increased resistance
- level of resistance of nucleoside-transport deficient CEM/ARAC8C cells (CEM/ARAC8C cells [6]; CEM/ARAC8C compared to CEM): 431 fold
- EC50 (CEM/ARAC8C cells [6]; read-out: EC50 (50% of the dose response curve), CEM/ARAC8C cells, 48 h exposure): 8630 nM
- Factor* (Resistance Factor), Average (CEM/dCK- [7]; Average ± spread of the ratios dCK- on wild-type CCRF-CEM): 8618 ± 3614
- IC50 (SF-268 [3]): 180 ± 250 nM
- IC50 (H-460 [9]; Homo sapiens, NCI-H460, read-out: IC50 H-460 24 h, Average, MTT at 72 hr, Average of the experiments): 72 ± 100 nM
- IC50 (H-460 [9]; read-out: IC50 H-460 24 h, MTT at 72 hr, 24 h exposure, single experiment): 12 nM and 86 nM

- inhibition at 10 µM (hENT1): ~75%
- uptake of [3H]nucleoside over the 6-min time course (CEM/ARAC8C cells [12]): Lack of [^3H]uridine uptake
Structure (SMILES): O=c1ccn([C@@H]2O[C@H](CO)[C@@H](O)[C@H]2O)c(=O)[nH]1 [uridine]
